What follows are molecules tested against Nicotine receptor (assay: [3H]-cytisine displacement in rat brain membrane preparation). Conditions: negative common logarithm of the concentration giving 50% displacement of specifically bound [3H]-cytisine; rat brain homogenate, 22° C., 60 min.
Format: binding
Protocol: The effect on nicotinergic receptors of the central nervous system is determined by a generally customary standard method for receptor binding studies (E. C. Hulme, Editor, Receptor-Ligand Interactions, Oxford University Press, 1992, pp 1-458). The binding was measured here by displacement of [^3 H]-cytisine by the active compounds in the rat brain membrane preparation.
Rats were sacrificed by decapitation and the entire brain was then removed immediately and processed. All following steps were carried out with cooling to 4° C. The brain was homogenized in sucrose solution (110 g of sucrose/l; 20 ml of solution per 1 g of brain mass) with the aid of a mixer. Coarse constituents were removed by centrifugation of the homogenate for 10 min at 1200 g and subsequent filtration through 5 layers of muslin. The suspension which remained (called homogenate in the following) was frozen and stored at -20° C. until use.
Buffer A for the test batch: 100 mM K2 HPO4 /KH2 PO4, pH 7.4, containing 1 g/ of bovine serum albumin.
For the determination of the displacement of [^3 H]-cytisine by the active compounds the following batch (1 ml total volume) was mixed together: 250 μl of thawed homogenate, 600 μl of buffer, 100 μl of active compound solution in buffer A (containing a concentration series in dilution steps with a factor of 10 between a maximum of 10^-2 M and a minimum of 10^-10 M of active compound, and 2 μl of methanol, from a concentrated stock solution of the active compounds), 50 μl of (^3 H)-cytisine solution in buffer A (containing 1.48 pmol of (^3 H)-cytisine, corresponding to 1.67 KBq, and 5 μl of ethanol, from a concentrated stock solution). In controls which contained no homogenate or no active compound, the missing volume was replaced by buffer A.
The batches were incubated at 22° C. in a shaking water bath for 60 min. To end incubation of the batches, 3 ml of ice-cold buffer A was added in each case and the whole solution was rapidly filtered through GF/C glass fibre filters. The filters were premoistened with a 1% strength solution of Prosil in buffer A. The filters were also washed twice with 3 ml of ice-cold buffer A each time. The filters were then removed and the radioactivity bound to the filters was determined in a liquid scintillation apparatus after addition of 10 ml of suitable scintillation cocktail.
All values were determined in duplicate and averaged. The concentration of active compound which leads to a 50% displacement of the specifically bound [^3 H]-cytisine was calculated from the concentration series by a logit transformation or by the 4-parameter logistic model (T. Chard; An Introduction to Radioimmunoassay and Related Techniques; Elsevier, Amsterdam, 1990; pp 613-171; statistical assessment by computer). The negative common logarithm of this concentration is called the pI50 in the following.

First: CCCC(c1ccc(F)cc1)N1CNC(NCc2ccc(Cl)nc2)=C([N+](=O)[O-])C1 (stereo not shown) [Example 1]
Second: COc1cccc(CN2CCN(Cc3ccc(Cl)nc3)C2=N[N+](=O)[O-])c1 [Example 4]
The pI30 of the first is higher: 6.6 for the first, 5.1 for the second.

Going from `O=[N+]([O-])C=C1NCCN1Cc1ccc(Cl)c(F)c1` [Example 2] to `Cc1ccc(CN2CCNC2=C[N+](=O)[O-])cn1` [Example 9], the pI30 rises from 5.3 to 6.4.

Going from `CC(=O)NCCN1CC([N+](=O)[O-])=C2N(Cc3ccc(Cl)nc3)CCN2C1` [Example 3] to `O=[N+]([O-])C=C1OCCN1Cc1ccc(Cl)nc1` [Example 14], the pI30 falls from 6.5 to 6.4.

First: CC(=NC#N)N(C)Cc1ccc(Cl)nc1 [Example 5]
Second: N#CC=C1NCCN1Cc1ccc(Cl)nc1 [Example 11]
The pI30 of the first is higher: 6.2 for the first, 5.8 for the second.

First: NC(=N[N+](=O)[O-])N1CCN(Cc2ccc(Cl)nc2)C1 [Example 6]
Second: CN1CN(C)C(=N[N+](=O)[O-])N(Cc2ccc(Cl)nc2)C1 [Example 15]
The pI30 of the first is lower: 4.8 for the first, 5.2 for the second.

Going from `O=[N+]([O-])C=C1NCCN1Cc1cccnc1` [Example 7] to `O=[N+]([O-])C=C1NCCN1Cc1ccncc1` [Example 8], the pI30 falls from 5.9 to 4.6.

Compared with `O=[N+]([O-])C=C1NCCN1Cc1cnc(Cl)s1` [Example 10], `O=[N+]([O-])C=C1NCCN1c1ccc(Cl)nc1` [Example 16] is lower in pI30: 6.2 for the first, 4.6 for the second.

Going from `O=[N+]([O-])N=C1NCCN1Cc1cccnc1` [Example 12] to `N#CC=C1CCCN1Cc1ccc(Cl)nc1` [Example 13], the pI30 rises from 5.7 to 6.6.

The molecules below were run on rats (assay: rat forced swimming test). Conditions: po, 5 min, period of immobility over 5 minutes, administered between the two swimming tests.
Format: in vivo
Source text: The activity of the substituted amines described in the treatment and prevention of affective disorders is confirmed with the aid of the "rat forced swimming test". This behavioural model was described for the first time by R. D. Porsolt et al. (Nature 266; 730, 1977) and today is a generally recognized in-vivo screening model for the discovery of new antidepressants. It is based on the observation that rats in a hopeless situation remain in an immobile position ("behavioural despair"). In a preliminary test, young adult rats (3-4 months old) are placed individually for 20 minutes in glass cylinders (height 40 cm, diameter 20 cm) which are filled with water to a height of 15 cm. 24 hours after this preliminary test, the animals are again transferred to the cylinders and the period of immobility is measured over a space of time of 5 minutes.
The substituted amines described are administered in the time interval between the two swimming tests. Controls receive the vehicle.

Compared with `CC(=O)NCCN1CC([N+](=O)[O-])=C2N(Cc3ccc(Cl)nc3)CCN2C1` [Example 3], `O=[N+]([O-])C=C1NCCN1Cc1cnc(Cl)s1` [Example 10] is 2.7-fold lower in ED50: 4.1 mg/kg for the first, 1.5 mg/kg for the second.

`O=[N+]([O-])N=C1NCCN1Cc1cccnc1` [Example 12] showed an ED50 of 2.5 mg/kg.

From US5547965A, “Use of substituted amines for the treatment of brain function disorders” (Bayer Aktiengesellschaft, priority 1994, dated 1996)
